Laboratory results reported in ChEMBL document CHEMBL3351819, “Clofazimine analogs with antileishmanial and antiplasmodial activity” (Bioorg Med Chem, 2015).

Columns and labels:
Leishmania infantum = test: Antileishmanial activity against Leishmania infantum MHOM/TN/80/IPT1 promastigotes assessed as inhibition of parasite growth after 72 hrs by MTT assay; type: functional, organism-based; conditions: MHOM/TN/80/IPT1, 72 h
Leishmania braziliensis = test: Antileishmanial activity against Leishmania braziliensis MHOM/IT/2006/ISS2848 promastigotes assessed as inhibition of parasite growth after 72 hrs by MTT assay; type: functional, organism-based; conditions: MHOM/IT/2006/ISS2848, 72 h
[1] = Selectivity index, ratio of IC50 for HMEC1 to IC50 for Leishmania braziliensis MHOM/IT/2006/ISS2848
[2] = Selectivity index, ratio of IC50 for HMEC1 to IC50 for Leishmania infantum MHOM/TN/80/IPT1
[3] = Cytotoxicity against HMEC1 cells after 72 hrs by MTT assay; type: cell-based; conditions: Homo sapiens, HMEC-1, 72 h
[4] = Selectivity index, ratio of IC50 for HMEC1 to IC50 for Leishmania tropica MHOM/IT/2012/ISS3130
Leishmania tropica = test: Antileishmanial activity against Leishmania tropica MHOM/IT/2012/ISS3130 promastigotes assessed as inhibition of parasite growth after 72 hrs by MTT assay; type: functional, organism-based; conditions: MHOM/IT/2012/ISS3130, 72 h
Plasmodium falciparum [5] = test: Resistance index, ratio of IC50 for chloroquine-resistant Plasmodium falciparum W2 to IC50 for chloroquine-sensitive Plasmodium falciparum D10; type: functional
Plasmodium falciparum [6] = test: Antiplasmodial activity against chloroquine-resistant Plasmodium falciparum W2 assessed as inhibition of parasite growth after 72 hrs by parasite lactate dehydrogenase assay; type: functional, organism-based; conditions: W2, 72 h
Plasmodium falciparum [7] = test: Antiplasmodial activity against chloroquine-sensitive Plasmodium falciparum D10 assessed as inhibition of parasite growth after 72 hrs by parasite lactate dehydrogenase assay; type: functional, organism-based; conditions: D10, 72 h
[8] = Selectivity index, ratio of IC50 for HMEC1 to IC50 for chloroquine-sensitive Plasmodium falciparum D10
[9] = Selectivity index, ratio of IC50 for HMEC1 to IC50 for chloroquine-resistant Plasmodium falciparum W2

SMILES | IC50 (Leishmania infantum) [nM] | IC50 (Leishmania braziliensis) [nM] | Ratio IC50 [1] | Ratio IC50 [2] | IC50 [3] [nM] | Ratio IC50 [4] | IC50 (Leishmania tropica) [nM] | Ratio IC50 (Plasmodium falciparum [5]) | IC50 (Plasmodium falciparum [6]) [nM] | IC50 (Plasmodium falciparum [7]) [nM] | Ratio IC50 [8] | Ratio IC50 [9]
C[C@@H]1[C@H](O)[C@@H](C)/C=C/C=C/C=C/C=C/C=C/C=C/C=C/[C@H](O[C@@H]2O[C@H](C)[C@@H](O)[C@H](N)[C@@H]2O)C[C@@H]2O[C@](O)(C[C@@H](O)C[C@@H](O)[C@H](O)CC[C@@H](O)C[C@@H](O)CC(=O)O[C@H]1C)C[C@H](O)[C@H]2C(=O)O [AMPHOTERICIN B] | 80 | 90 | 286 | 321 | 25700 | 286 | 90 |  |  |  |  | 
Cl.c1ccc(-n2c3c/c(=N/CCCCC45CCCCN4CCCC5)c(Nc4cccnc4)cc-3nc3ccccc32)cc1 | 6020 |  |  | 0.6 | 3890 | 1.9 | 2010 | 0.8 | 210 | 280 | 13.9 | 18.5
COc1ccc(Nc2cc3nc4ccccc4n(-c4ccccc4)c-3c/c2=N/CCCCC23CCCCN2CCCC3)cn1.Cl | 4440 |  |  | 1.4 | 6320 | 2.7 | 2320 | 0.4 | 350 | 810 | 7.8 | 18.1
Clc1ccc(Nc2cc3nc4ccccc4n(-c4ccc(Cl)cc4)c-3c/c2=N/C[C@@H]2CCCN3CCCC[C@H]23)cc1 |  |  |  |  |  |  |  | 2.1 | 960 | 450 |  | 
Cl.c1ccc(Nc2cc3nc4ccccc4n(-c4ccccc4)c-3c/c2=N/CC23CCCN2CCC3)cc1 |  |  |  |  | 2650 | 0.3 | 9850 | 0.7 | 440 | 640 | 4.1 | 6
C[N+]12CCCCC1(CCCC/N=c1/cc3n(-c4ccccc4)c4ccccc4nc-3cc1Nc1ccccc1)CCCC2.[I-] (configuration not stated) | 2670 |  |  | 4.1 | 11100 | 10.1 | 1090 | 1.4 | 270 | 190 | 58.2 | 41
Cl.c1ccc(Nc2cc3nc4ccccc4n(-c4ccccc4)c-3c/c2=N/CCCCCCC23CCCCN2CCCC3)cc1 | 230 | 140 | 8.9 | 5.4 | 1240 | 10.3 | 120 | 1.2 | 210 | 170 | 7.3 | 5.9
CCN(CC)CCCC(C)Nc1ccnc2cc(Cl)ccc12 (configuration not stated) [CHLOROQUINE] |  |  |  |  | > 38000 |  |  |  |  |  |  | 
Cc1ccc(Nc2cc3nc4ccccc4n(-c4ccc(C)cc4)c-3c/c2=N/C[C@@H]2CCCN3CCCC[C@H]23)cc1.Cl | 460 |  |  | 3.4 | 1570 | 3.3 | 470 | 1.9 | 400 | 210 | 7.5 | 3.9
c1ccc(Nc2cc3nc4ccccc4n(-c4ccccc4)c-3c/c2=N/CC[C@@H]2CCCN3CCCC[C@H]23)cc1 |  |  |  |  |  |  |  | 1.5 | 270 | 180 |  | 
Cl.Clc1ccc(Nc2cc3nc4ccccc4n(-c4ccc(Cl)cc4)c-3c/c2=N/CCC23CCCN2CCC3)cc1 | 300 |  |  | 3.3 | 980 | 1.8 | 540 | 2.4 | 450 | 190 | 5.2 | 2.2
c1ccc(Nc2cc3nc4ccccc4n(-c4ccccc4)c-3c/c2=N/C[C@H]2CCCN3CCCC[C@H]23)cc1 |  |  |  |  |  |  |  | 1.7 | 240 | 140 |  | 
